Reference: patent US10988477B2 (Merck Patent GmbH, priority 2018, dated 2021)
Like-named read-outs stand apart in the source and are kept apart here.

Assays:
[1] = target: intracellular GCN2 (phosphorylation of the GCN2 substrate eIF2α) (Homo sapiens, UniProt Q9P2K8); assay: GCN2 cellular inhibition assay (AlphaScreen SureFire P-eIF2α Ser51, borrelidin-treated U2OS cells); assay type: cell-based
Outline: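 Borrelidin at 10 μM is added to U2OS cells immediately after compound (4-fold dilution series, 40 μM top final) for 1 h at 37 °C. Phosphorylated eIF2α Ser51 in lysates is quantified by AlphaScreen and expressed as percent inhibition against borrelidin-stimulated controls.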

GCN2 kinase = GCN2 kinase (Homo sapiens, UniProt Q9P2K8); assay: GCN2 enzyme inhibition assay (Transcreener ADP2 fluorescence polarization); assay type: biochemical; settings: 280 μM ATP
Outline: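 4 nM GCN2 + 200 μM (RS)7 + compound (0–8 μM), 10 min preinc.; start with ATP (280 μM final); 1 h, 25 °C; pH 7.5 Tris/NaCl/MgCl2/DTT; ADP FP readout; IC50, Ki(app) via tight-binding fit.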

[2] = compounds of Formula IV, biomarker assay, phosphorylated eIF2α Ser51 in borrelidin-treated U2OS cells
[3] = Enzyme activity for compounds of Formula IV, Ki(app), 25° C.
[4] = compounds of Formula II, biomarker assay, phosphorylated eIF2α Ser51 in borrelidin-treated U2OS cells
[5] = compounds of Formula II, 4 nM GCN2 kinase

Chain of intracellular GCN2 (phosphorylation of the GCN2 substrate eIF2α) (Q9P2K8 whole entry): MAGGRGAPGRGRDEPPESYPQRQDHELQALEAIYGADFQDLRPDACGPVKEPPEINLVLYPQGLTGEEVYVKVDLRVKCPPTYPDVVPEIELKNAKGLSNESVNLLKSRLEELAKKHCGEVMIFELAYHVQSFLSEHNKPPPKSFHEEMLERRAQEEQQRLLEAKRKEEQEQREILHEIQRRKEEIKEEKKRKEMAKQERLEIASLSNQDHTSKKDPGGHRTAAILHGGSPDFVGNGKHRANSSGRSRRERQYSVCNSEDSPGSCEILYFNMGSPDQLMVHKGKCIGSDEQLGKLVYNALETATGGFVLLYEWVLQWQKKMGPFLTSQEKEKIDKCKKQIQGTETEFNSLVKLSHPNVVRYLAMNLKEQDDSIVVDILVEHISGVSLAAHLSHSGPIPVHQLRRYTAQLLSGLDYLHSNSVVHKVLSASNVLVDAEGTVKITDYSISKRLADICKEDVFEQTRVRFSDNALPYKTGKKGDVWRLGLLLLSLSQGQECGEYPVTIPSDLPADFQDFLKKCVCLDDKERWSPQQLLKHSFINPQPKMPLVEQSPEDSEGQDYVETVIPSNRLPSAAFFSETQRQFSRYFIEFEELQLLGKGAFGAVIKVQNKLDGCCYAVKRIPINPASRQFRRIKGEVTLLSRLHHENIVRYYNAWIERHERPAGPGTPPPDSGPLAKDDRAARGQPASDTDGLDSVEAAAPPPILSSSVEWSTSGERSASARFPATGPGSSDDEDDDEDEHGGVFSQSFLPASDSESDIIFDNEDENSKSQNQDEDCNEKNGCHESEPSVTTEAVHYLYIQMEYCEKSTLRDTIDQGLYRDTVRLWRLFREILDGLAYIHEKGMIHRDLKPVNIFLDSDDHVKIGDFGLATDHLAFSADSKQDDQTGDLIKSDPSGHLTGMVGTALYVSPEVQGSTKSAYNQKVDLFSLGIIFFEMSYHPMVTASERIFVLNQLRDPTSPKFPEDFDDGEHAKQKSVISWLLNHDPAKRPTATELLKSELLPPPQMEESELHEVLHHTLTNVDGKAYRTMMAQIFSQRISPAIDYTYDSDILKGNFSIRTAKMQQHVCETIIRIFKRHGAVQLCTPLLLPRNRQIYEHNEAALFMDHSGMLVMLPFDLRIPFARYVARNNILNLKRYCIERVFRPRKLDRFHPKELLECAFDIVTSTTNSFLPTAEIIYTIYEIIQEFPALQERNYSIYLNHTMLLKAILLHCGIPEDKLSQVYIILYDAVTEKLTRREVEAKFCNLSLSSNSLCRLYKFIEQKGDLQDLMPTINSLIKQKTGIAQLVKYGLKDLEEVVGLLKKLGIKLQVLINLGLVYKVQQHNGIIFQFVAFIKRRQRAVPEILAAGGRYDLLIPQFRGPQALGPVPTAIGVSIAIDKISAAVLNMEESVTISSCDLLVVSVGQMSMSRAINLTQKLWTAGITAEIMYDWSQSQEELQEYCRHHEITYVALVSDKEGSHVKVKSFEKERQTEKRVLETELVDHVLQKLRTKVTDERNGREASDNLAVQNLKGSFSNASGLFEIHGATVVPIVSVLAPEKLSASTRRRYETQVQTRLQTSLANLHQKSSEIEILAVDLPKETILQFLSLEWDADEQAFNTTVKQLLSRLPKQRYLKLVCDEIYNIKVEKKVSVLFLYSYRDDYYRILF
Chain of GCN2 kinase (Q9P2K8 whole entry): as above

Compound	IC50 [1, 2] [nM]	Ki (GCN2 kinase; [3]) [nM]	IC50 [1, 4] [nM]	Ki (GCN2 kinase; [5]) [nM]	other results
FC(F)c1cn2c(-c3nccc(N4CCC(c5ccccn5)C4)n3)cnc2cn1 (stereo not shown) [IV-77, 6-(Difluoromethyl)-3-(4-(3-(pyridin-2-yl)pyrrolidin-1-yl)pyrimidin-2-yl)imidazo[1,2-a]pyrazine]	> 5000	100 to 1000	–	–	–
CC1NCC(C)N(c2ccnc(-c3cnc4cnc(C(F)(F)F)cn34)n2)C1c1ccc(=O)[nH]c1 (stereo not shown) [IV-676, 5-(3,6-Dimethyl-1-(2-(6-(trifluoromethyl)imidazo[1,2-a]pyrazin-3-yl)pyrimidin-4-yl)piperazin-2-yl)pyridin-2(1H)-one]	500 to 5000	100 to 1000	–	–	–
O=C1NCC2(CCCN(c3ccnc(-c4cnc5cnc(C(F)F)cn45)n3)CC2)O1 (stereo not shown) [IV-87, 8-(2-(6-(Difluoromethyl)imidazo[1,2-a]pyrazin-3-yl)pyrimidin-4-yl)-1-oxa-3,8-diazaspiro[4.6]undecan-2-one]	> 5000	100 to 1000	–	–	–
C[C@H]1CN(c2cc(-c3cnc4ccc(C(C)(F)F)nn34)ncn2)C[C@@H](CNS(C)(=O)=O)C1(F)F [II-321, N-(((3S,5S)-1-(6-(6-(1,1-Difluoroethyl)imidazo[1,2-b]pyridazin-3-yl)pyrimidin-4-yl)-4,4-difluoro-5-methylpiperidin-3-yl)methyl)methanesulfonamide]	–	–	> 5000	10 to 1000	–
CC1C(C(N)=O)CCN1c1ccnc(-c2cnc3cnc(C(F)(F)F)cn23)n1 (single isomer, unassigned) [IV-615, 2-Methyl-1-(2-(6-(trifluoromethyl)imidazo[1,2-a]pyrazin-3-yl)pyrimidin-4-yl)pyrrolidine-3-carboxamide]	500 to 5000	10 to 100	–	–	–
Brc1cn2c(-c3nccc(N4CCCC(c5cn[nH]c5)C4)n3)cnc2cn1 (stereo not shown) [IV-346, 3-(4-(3-(1H-Pyrazol-4-yl)piperidin-1-yl)pyrimidin-2-yl)-6-bromoimidazo[1,2-a]pyrazine]	< 500	< 10	–	–	–
FC(F)c1cn2c(-c3nccc(N4CCC5(CCC5)C4)n3)cnc2cn1 [IV-75, 3-[4-(6-Azaspiro[3.4]octan-6-yl)pyrimidin-2-yl]-6-(difluoromethyl)imidazo[1,2-a]pyrazine]	> 5000	100 to 1000	–	–	–
Brc1cn2c(-c3nccc(N4CCCC(c5cn[nH]c5)C4)n3)cnc2cn1 (single isomer, unassigned) [IV-361, 3-(4-(3-(1H-Pyrazol-4-yl)piperidin-1-yl)pyrimidin-2-yl)-6-bromoimidazo[1,2-a]pyrazine]	< 500	< 10	–	–	–
C[C@@H]1C[C@H](CS(C)(=N)=O)[C@H](C)N(c2cc(-c3cnc4ccc(C(F)F)nn34)ncn2)C1 (stereo partly drawn) [II-607, (((2S,3S,5R)-1-(6-(6-(Difluoromethyl)imidazo[1,2-b]pyridazin-3-yl)pyrimidin-4-yl)-2,5-dimethylpiperidin-3-yl)methyl)(imino)(methyl)-λ^6-sulfanone]	–	–	< 500	< 10	–
CS(=N)(=O)C1CCCN(c2cc(-c3cnc4ccc(C(F)F)nn34)ncn2)C1 (stereo not shown) [II-522, (1-(6-(6-(Difluoromethyl)imidazo[1,2-b]pyridazin-3-yl)pyrimidin-4-yl)piperidin-3-yl)(imino)(methyl)-λ^6-sulfanone]	–	–	500 to 5000	10 to 1000	–
FC(F)(F)c1cn2c(-c3nccc(N4CCC(c5c[nH]nc5C(F)(F)F)C4)n3)cnc2cn1 (single isomer, unassigned) [IV-629, 6-(Trifluoromethyl)-3-(4-(3-(3-(trifluoromethyl)-1H-pyrazol-4-yl)pyrrolidin-1-yl)pyrimidin-2-yl)imidazo[1,2-a]pyrazine]	500 to 5000	< 10	–	–	–
FC(F)(F)c1cn2c(-c3nccc(N4CCCCC4)n3)cnc2cn1 [IV-423, 3-(4-(Piperidin-1-yl)pyrimidin-2-yl)-6-(trifluoromethyl)imidazo[1,2-a]pyrazine]	> 5000	100 to 1000	–	–	–
CC1C(c2cn[nH]c2)CCCN1c1ccnc(-c2cnc3cnc(C(F)(F)F)cn23)n1 (single isomer, unassigned) [IV-420, 3-(4-(2-Methyl-3-(1H-pyrazol-4-yl)piperidin-1-yl)pyrimidin-2-yl)-6-(trifluoromethyl)imidazo[1,2-a]pyrazine]	< 500	< 10	–	–	–
FC(F)c1cn2c(-c3nccc(N4CCC(C5COC5)C4)n3)cnc2cn1 (stereo not shown) [IV-73, 6-(Difluoromethyl)-3-(4-(3-(oxetan-3-yl)pyrrolidin-1-yl)pyrimidin-2-yl)imidazo[1,2-a]pyrazine]	> 5000	100 to 1000	–	–	–
FC(F)c1ccc2ncc(-c3cc(C4CCCN(C5COC5)C4)ncn3)n2n1 (single isomer, unassigned) [II-242, 6-(Difluoromethyl)-3-(6-(1-(oxetan-3-yl)piperidin-3-yl)pyrimidin-4-yl)imidazo[1,2-b]pyridazine]	–	–	> 5000	10 to 1000	–
C[C@H]1CO[C@@H](CNS(C)(=O)=O)CN1c1cc(-c2cnc3ccc(C(F)F)nn23)ncn1 [II-234, N-(((2R,5S)-4-(6-(6-(difluoromethyl)imidazo[1,2-b]pyridazin-3-yl)pyrimidin-4-yl)-5-methylmorpholin-2-yl)methyl)methanesulfonamide]	–	–	500 to 5000	10 to 1000	–
NC(=O)C1CCCN(c2cc(-c3cnc4ccc(C(F)F)nn34)ncn2)C1 (stereo not shown) [II-378, 1-(6-(6-(Difluoromethyl)imidazo[1,2-b]pyridazin-3-yl)pyrimidin-4-yl)piperidine-3-carboxamide]	–	–	500 to 5000	10 to 1000	–
c1cn2c(-c3nccc(N4CCOC(c5cn[nH]c5)C4)n3)cnc2cn1 (stereo not shown) [IV-39, 4-(2-(Imidazo[1,2-a]pyrazin-3-yl)pyrimidin-4-yl)-2-(1H-pyrazol-4-yl)morpholine]	> 5000	100 to 1000	–	–	–
C[C@@H]1[C@H](CNS(C)(=O)=O)N(C2CC2)CCN1c1cc(-c2cnc3ccc(C(F)F)nn23)ncn1 [II-753, N-(((2S,3R)-1-cyclopropyl-4-(6-(6-(difluoromethyl)imidazo[1,2-b]pyridazin-3-yl)pyrimidin-4-yl)-3-methylpiperazin-2-yl)methyl)methanesulfonamide]	–	–	500 to 5000	–	IC50 (GCN2 kinase; [5]): 10 to 1000 nM
CC(=O)N1CCN(c2ccnc(-c3cnc4ccc(C(F)F)nn34)c2)CC1 [II-127, 1-(4-(2-(6-(Difluoromethyl)imidazo[1,2-b]pyridazin-3-yl)pyridin-4-yl)piperazin-1-yl)ethanone]	–	–	500 to 5000	10 to 1000	–
FC(F)(F)c1ccc2ncc(-c3ccnc(N4CCCC(c5c[nH]cn5)C4)c3)n2n1 (stereo not shown) [II-740]	–	–	< 500	< 10	–
CS(=N)(=O)CC1CCCN(c2ccnc(-c3cnc4sc(C(F)(F)F)cn34)n2)C1 (racemic) [Compound V-19, Imino(methyl)((1-(2-(2-(trifluoromethyl)imidazo[2,1-b]thiazol-5-yl)pyrimidin-4-yl)piperidin-3-yl)methyl)-λ^6-sulfanone]	–	–	–	–	IC50 ([1]; compounds of Formula V, U2OS cells, 10 μM borrelidin, 1 h, read-out: GCN2 Biomarker (IC50)): > 5000 nM; Ki (GCN2 kinase; compounds of Formula V, 4 nM GCN2 kinase): 100 to 1000 nM
CCN1CCN(c2ccnc(-c3cnc4cnc(Br)cn34)n2)[C@@H](C)[C@H]1c1cn[nH]c1 (single isomer, unassigned) [IV-401, Cis-6-Bromo-3-(4-(4-ethyl-2-methyl-3-(1H-pyrazol-4-yl)piperazin-1-yl)pyrimidin-2-yl)imidazo[1,2-a]pyrazine]	500 to 5000	10 to 100	–	–	–
